Results from patent US20260364184A1, “COMPOUND BASED ON OXOISOINDOLINYL-SUBSTITUTED TETRAHYDROPYRIMIDINE-DIONE AND USE THEREOF” (GLUETACS THERAPEUTICS (SHANGHAI) CO., LTD., priority 2023, published 2026).

What was measured:
Type in all cases: cell-based
[1] = target: T1, IRAK4 (Homo sapiens, UniProt Q9NWZ3); assay: Western blot degradation of IRAK4; settings: hPBMC Cell; 24 hours
T1 construct: expression of target proteins in cells; endogenous in cells
T1 sequence (Q9NWZ3 1-460): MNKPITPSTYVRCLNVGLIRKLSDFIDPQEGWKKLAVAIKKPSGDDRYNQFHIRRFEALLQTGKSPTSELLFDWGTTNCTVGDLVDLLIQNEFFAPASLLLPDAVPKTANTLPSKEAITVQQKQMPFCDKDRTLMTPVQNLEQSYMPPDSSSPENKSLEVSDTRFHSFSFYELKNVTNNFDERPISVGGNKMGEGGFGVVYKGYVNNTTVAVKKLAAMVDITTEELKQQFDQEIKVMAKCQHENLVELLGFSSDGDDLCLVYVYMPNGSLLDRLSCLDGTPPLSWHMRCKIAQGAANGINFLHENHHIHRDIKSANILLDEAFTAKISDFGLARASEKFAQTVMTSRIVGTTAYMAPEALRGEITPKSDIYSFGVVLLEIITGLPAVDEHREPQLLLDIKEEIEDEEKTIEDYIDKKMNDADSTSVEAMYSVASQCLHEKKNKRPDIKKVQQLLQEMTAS
Procedure, shortened: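 Cells treated with compound, lysed, and target protein detected by Western blot (SDS-PAGE, nitrocellulose transfer). DC50 taken as the concentration giving band grayscale half that of DMSO control, estimated by concentration-response fitting; remaining protein (%) from target band normalised to internal control band; degradation (%) = 1 − remaining.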

[2] = Inhibition of RPMI-8226 cell proliferation (CellTiter luminescent viability); settings: Homo sapiens; Table IA4, IRAK4 inhibitor-based; RPMI-8226, 10 nM, 96 hours; read-out: Inhibition Rate at 10 nM (%)
Method: (§1) The tumor cells used herein were cultured in a cell culture medium listed in table 3 at 37 °C in an incubator with 5% CO2. Prior to experimentation, all cell lines used were correctly identified by STR profiling, and tested negative for mycoplasma contamination using a mycoplasma detection kit through routine screenings.
(§2) The IC50 values of the compounds of the present disclosure (including the compounds in Table 1, Table 2, and Examples 1-468) were determined using the CellTiter-Meiluncell Luminescent Cell Viability Assay Kit from Dalian Meilun Biotech Co., Ltd. The detailed procedure is as follows: Tumor cells were seeded in 96-well cell culture plates at the densities specified in Table 4. On the following day, the test compounds of the present disclosure were subjected to serial dilution. The dilution can be performed according to one of the following two methods: • (1) The first dilution method: The test compounds of the present disclosure (including the compounds in Table 1, Table 2, and Examples 1-468) were subjected to 5-fold serial dilutions starting from a highest concentration of 2000 μM, resulting in a total of 9 concentrations from high to low (2000, 400, 80, 16, 3.2, 0.64, 0.128, 0.0256, 0.00512 μM). Subsequently, 0.5 μL of the test compound dilution was transferred into the 96-well plate containing the cells, with each well containing 100 μL of cell culture medium. […] Into the 96-well plate, the diluted test compounds and corresponding detection reagents were added, resulting in final test compound concentrations of 500 nM and 10 nM, respectively. The experimental procedure is described below using the diluted 2 μM test compound as an example.
(§3) 0.5 μL of the aforementioned diluted compound of the present disclosure (including the compounds in Table 1, Table 2, and Examples 1-468) was added to the seeded cells in 100 μL of medium, yielding a final test compound concentration of 10 nM. After the cells were treated with the compounds of the present disclosure for a specified period, the cell viability assay reagent was added to the culture medium according to the kit's instructions to determine cell viability. […] All controls were treated using the same procedure as the compounds of the present disclosure. The growth inhibition curves for the compounds of the present disclosure were plotted using Prism GraphPad software, and the IC50 values were calculated therefrom.

[3] = tested on: Human B-Cell Lymphoma Cells (RPMI-8226); assay: as above; settings: Table IA4, IRAK4 inhibitor-based, RPMI-8226, 500 nM, 96 hours, read-out: Inhibition Rate at 500 nM (%)
Method: as §1, §2, §3

[4] = tested on: Human Multiple myeloma cell line (MM.1S); assay: Inhibition of MM.1S cell proliferation (CellTiter luminescent viability); settings: Homo sapiens, MM1.S, Table IA5, IRAK4 inhibitor-based, 96 hours; for inhibition at 0.01 µM: 10 nM, read-out: Inhibition Rate at 10 nM (%); for inhibition at 0.5 µM: 500 nM, read-out: Inhibition Rate at 500 nM (%)
Procedure, shortened: (§4)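 Cells are seeded in 96-well plates, cultured at 37 °C, 5% CO2, and treated next day with 5-fold serial compound dilutions (stock series from 2000 μM; 0.5 μL into 100 μL medium). Viability is read by CellTiter-Meiluncell luminescence after the set exposure, and IC50 is taken from growth-inhibition curves.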

[5] = tested on: Human myeloid monocytic leukemia cell line (MV-4-11); assay: Inhibition of MV-4-11 cell proliferation (CellTiter luminescent viability); settings: Homo sapiens, MV4-11, Table IA3, IRAK4 inhibitor-based, 96 hours; for inhibition at 0.01 µM: MV-4-11, 10 nM, read-out: Inhibition Rate at 10 nM (%); for inhibition at 0.5 µM: MV-4-11, 500 nM, read-out: Inhibition Rate at 500 nM (%)
Procedure, shortened: as §4

[6] = tested on: Human Acute T Lymphoblastic Leukemia Cells (Molt-4); assay: Inhibition of Molt-4 cell proliferation (CellTiter luminescent viability); settings: Homo sapiens, MOLT-4, 96 h, Table IA2, IRAK4 inhibitor-based, 96 hours; for inhibition at 0.01 µM: Molt-4, 10 nM, read-out: Inhibition Rate at 10 nM (%); for inhibition at 0.5 µM: Molt-4, 500 nM, read-out: Inhibition Rate at 500 nM (%)
Method: as §1, §2, §3

Row | Degradation of substrate protein IRAK4 (substrate protein remaining %) [1] | Compound | inhibition at 0.01 µM [2] [%] | inhibition at 0.5 µM [3] [%] | inhibition at 0.01 µM [4] [%] | inhibition at 0.5 µM [4] [%] | inhibition at 0.01 µM [5] [%] | inhibition at 0.5 µM [5] [%] | inhibition at 0.01 µM [6] [%] | inhibition at 0.5 µM [6] [%]
1 | A (0%≤substrate protein remaining %≤80%) | COc1cc2nn([C@H]3CC[C@H](CN4C5CC4CN(c4ccc6c(c4)C(=O)N(N4CCC(=O)NC4=O)C6=O)C5)CC3)cc2cc1NC(=O)c1cccc(C(F)(F)F)n1 [GT-08653, N-(2-((1r,4r)-4-((3-(2-(2,4-dioxotetrahydropyrimidin-1(2H)-yl)-1,3-dioxoisoindolin-5-yl)-3,6-diazabicyclo[3.1.1]heptan-6-yl)methyl)cyclohexyl)-6-methoxy-2H-indazol-5-yl)-6-(trifluoromethyl) picolinamide] | 15 to 20 | 25 to 30 |  |  |  |  |  | 
2 |  | CC(C)(O)c1cc2nc(C3CCN(CC4CCN(c5ccc6c(c5)C(=O)N(N5CCC(=O)NC5=O)C6=O)CC4)CC3)oc2cc1NC(=O)c1cccc(C(F)(F)F)n1 [GT-05222, N-(2-(1-((1-(2-(2,4-dioxotetrahydropyrimidin-1(2H)-yl)-1,3-dioxoisoindolin-5-yl)piperidin-4-yl)methyl)piperidin-4-yl)-5-(2-hydroxypropan-2-yl)benzo[d]oxazol-6-yl)-6-(trifluoromethyl) picolinamide] | 30 to 40 | 30 to 40 | 30 to 40 | 25 to 30 |  |  |  | 
3 |  | O=C1CCN(N2C(=O)c3ccc(N4CCC(N5CCC(CN6CCC(n7cc(NC(=O)c8cnn9ccc(N%10CCOCC%10)nc89)c(C(F)F)n7)CC6)CC5)CC4)cc3C2=O)C(=O)N1 [GT-05760, N-(3-(difluoromethyl)-1-(1-((1′-(2-(2,4-dioxotetrahydropyrimidin-1(2H)-yl)-1,3-dioxoisoindolin-5-yl)-[1,4′-bipiperidin]-4-yl)methyl)piperidin-4-yl)-1H-pyrazol-4-yl)-5-morpholinopyrazolo[1,5-a]pyrimidine-3-carboxamide] | 25 to 30 | 30 to 40 | 25 to 30 | 30 to 40 | 50 to 60 | 80 to 100 |  | 
4 |  | Cc1cc(-c2nc(C(=O)Nc3cc4oc(N5CCN(Cc6ccc7c(c6)CN(N6CCC(=O)NC6=O)C7=O)CC5)nc4nc3N3CC[C@@H](O)C3)co2)ccn1 [GT-05750, (R)—N-(2-(4-((2-(2,4-dioxotetrahydropyrimidin-1(2H)-yl)-1-oxoisoindolin-5-yl)methyl)piperazin-1-yl)-5-(3-hydroxypyrrolidin-1-yl)oxazolo[4,5-b]pyridin-6-yl)-2-(2-methylpyridin-4-yl) oxazole-4-carboxamide] | 25 to 30 | 20 to 25 |  |  | 36 to 45 | 80 to 100 |  | 
5 |  | Cc1cc(-c2nc(C(=O)Nc3cc4oc(N5CCN(Cc6ccc7c(c6)C(=O)N(N6CCC(=O)NC6=O)C7=O)CC5)nc4nc3N3CC[C@@H](O)C3)co2)ccn1 [GT-05803, (R)—N-(2-(4-((2-(2,4-dioxotetrahydropyrimidin-1(2H)-yl)-1,3-dioxoisoindolin-5-yl)methyl)piperazin-1-yl)-5-(3-hydroxypyrrolidin-1-yl)oxazolo[4,5-b]pyridin-6-yl)-2-(2-methylpyridin-4-yl) oxazole-4-carboxamide] | 25 to 30 | 20 to 25 | 30 to 40 | 25 to 30 | 50 to 60 | 60 to 80 |  | 
6 |  | O=C1CCN(N2C(=O)c3cccc(N4CCC(CN5CCC(n6cc(NC(=O)c7cnn8ccc(N9CCOCC9)nc78)c(C(F)F)n6)CC5)CC4)c3C2=O)C(=O)N1 [GT-05224, N-(3-(difluoromethyl)-1-(1-((1-(2-(2,4-dioxotetrahydropyrimidin-1(2H)-yl)-1,3-dioxoisoindolin-4-yl)piperidin-4-yl)methyl)piperidin-4-yl)-1H-pyrazol-4-yl)-5-morpholinopyrazolo[1,5-a]pyrimidine-3-carboxamide] | 20 to 25 | 30 to 40 | 15 to 20 | 60 to 80 | 50 to 60 | 80 to 100 | 0 to 3 | 80 to 100
7 |  | CC(C)(O)c1cc2nc(C3CCN(Cc4ccc5c(c4)CN(N4CCC(=O)NC4=O)C5=O)CC3)sc2cc1NC(=O)c1cccc(C(F)(F)F)n1 [GT-05747, N-(2-(1-((2-(2,4-dioxotetrahydropyrimidin-1(2H)-yl)-1-oxoisoindolin-5-yl)methyl)piperidin-4-yl)-5-(2-hydroxypropan-2-yl)benzo[d]thiazol-6-yl)-6-(trifluoromethyl) picolinamide] | 25 to 30 | 25 to 30 |  |  | 36 to 45 | 80 to 100 |  | 
8 | A (0%≤substrate protein remaining %≤80%) | COc1cc2nn([C@H]3CC[C@H](CN4CCN(c5cccc6c5C(=O)N(N5CCC(=O)NC5=O)C6=O)CC4)CC3)cc2cc1NC(=O)c1cccc(C(F)(F)F)c1 [GT-08668, N-(2-((1r,4r)-4-((4-(2-(2,4-dioxotetrahydropyrimidin-1(2H)-yl)-1,3-dioxoisoindolin-4-yl)piperazin-1-yl)methyl)cyclohexyl)-6-methoxy-2H-indazol-5-yl)-3-(trifluoromethyl)benzamide] | 20 to 25 | 30 to 40 |  |  |  |  |  | 
9 |  | O=C1CCN(N2Cc3cc(CN4CCC(n5cc(NC(=O)c6coc(-c7ccnc(NCC(F)(F)F)c7)n6)c(C(F)F)n5)CC4)ccc3C2=O)C(=O)N1 [GT-05184, N-(3-(difluoromethyl)-1-(1-((2-(2,4-dioxotetrahydropyrimidin-1(2H)-yl)-1-oxoisoindolin-5-yl)methyl)piperidin-4-yl)-1H-pyrazol-4-yl)-2-(2-((2,2,2-trifluoroethyl)amino)pyridin-4-yl) oxazole-4-carboxamide] | 20 to 25 | 80 to 100 | 5 to 10 | 80 to 100 | 50 to 60 | 80 to 100 | 3 to 7 | 80 to 100
